Tested on: Brassica napus cv Jet Neuf suspension cell cultures
Assay: Cell culture growth and analysis of B. napus suspension cells fed Tween-80
Assay type: cell-based
Settings: concentrations up to 10 mM
Method: Brassica napus cv Jet Neuf suspension cell cultures were grown in NLN medium (Lichter 1982, Z. Pflanzenphysiol, 105, 427-434) with modifications (Shi et al. 2008, Plant Cell Tiss Org, 92 131-139). Cells were grown shaking at 160 rpm at 25° C. in either 50 mL or 100 mL volumes (in 125 mL or 250 mL flasks, respectively) under constant fluorescent light at 50 […]. Medium was refreshed every 48 h for experiments lasting longer than two days. Tween-esters were obtained from Sigma (St. Louis, Mo. USA). A 150 mM stock solution was made by dissolving 9.8 g in 50 mL of water and it was filter sterilized before addition to cultures. Subculturing was done every eight days and new cultures were inoculated with about 200 mg of cells. Cells were harvested by filtering with a Buchner funnel, were rinsed three times with distilled water, and were frozen immediately in liquid N2 in preweighed aluminum foil pouches. Dry weight to fresh weight ratio was determined by lyophilizing a known fresh weight of cells. For SDS-PAGE, proteins were extracted in 3 volumes (w/v) of 50 mM Tris-Cl, pH 7.5, 10 mM KCl, 5 mM MgCl2, 1 mM EDTA, 1 mM DTT, 0.1% Triton X-100, and were quantified by Bradford assay.
In order to study the feedback regulation of fatty acid synthesis it was necessary to first establish conditions where fatty acids could be fed while minimizing any negative pleiotropic effects. […]

Tween-80
effect on growth rate: no effect
